# According to publication PMC9898036, “VIP152 is a selective CDK9 inhibitor with pre-clinical in vitro and in vivo efficacy in chronic lymphocytic leukemia” (Leukemia, 2022):
# Key:
# Type in all cases: binding
# CDKL3 = CDKL3 (Homo sapiens, UniProt Q8IVW4); assay: KINOMEscan: CDKL3; conditions: 1000 nM, read-out: Percent Control
# human kinome [1] = molecular target: human kinome (Homo sapiens, UniProt Q13976); assay: DiscoverX KINOMEscan kinase profiling (468 assays); conditions: read-out: Percent Control
# How it was run: (§1)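 DNA-tagged kinases competed for immobilized biotinylated ligands on streptavidin magnetic beads, with bound kinase quantified by qPCR. VIP152 in DMSO was tested against a DMSO control.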
# human kinome [2] = molecular target: human kinome (Homo sapiens, UniProt Q13470); assay: DiscoverX KINOMEscan kinase profiling (468 assays); conditions: kinase TNK1 (Entrez TNK1); compound concentration 1000 nM; read-out: Percent Control
# How it was run: as §1
# human kinome [3] = molecular target: human kinome (Homo sapiens, UniProt Q99640); assay: DiscoverX KINOMEscan kinase profiling (468 assays); conditions: read-out: Percent Control
# How it was run: as §1
# human kinome [4] = molecular target: human kinome (Homo sapiens, UniProt P68400); assay: DiscoverX KINOMEscan kinase profiling (468 assays); conditions: CSNK2A1; 100 nM; read-out: Percent Control
# How it was run: as §1
# human kinome [5] = molecular target: human kinome (Homo sapiens, UniProt Q99755); assay: DiscoverX KINOMEscan kinase profiling (468 assays); conditions: read-out: Percent Control
# How it was run: as §1
# human kinome [6] = molecular target: human kinome (Homo sapiens, UniProt Q8WTQ7); assay: DiscoverX KINOMEscan kinase profiling (468 assays); conditions: GRK7; 100 nM; read-out: Percent Control
# How it was run: as §1
# human kinome [7] = molecular target: human kinome (Homo sapiens, UniProt Q9H2K8); assay: DiscoverX KINOMEscan kinase profiling (468 assays); conditions: kinase TAOK3 (Entrez TAOK3); compound concentration 1000 nM; read-out: Percent Control
# How it was run: as §1
# human kinome [8] = molecular target: human kinome (Homo sapiens, UniProt Q13131); assay: DiscoverX KINOMEscan kinase profiling (468 assays); conditions: AMPK-alpha1 (Entrez PRKAA1); 100 nM; read-out: Percent Control
# How it was run: as §1
# human kinome [9] = molecular target: human kinome (Homo sapiens, UniProt P42336, H1047Y); assay: DiscoverX KINOMEscan kinase profiling (468 assays); conditions: read-out: Percent Control
# How it was run: as §1
# human kinome [10] = molecular target: human kinome (Homo sapiens, UniProt P07949); assay: DiscoverX KINOMEscan kinase profiling (468 assays); conditions: kinase RET (Entrez RET); compound concentration 1000 nM; read-out: Percent Control
# How it was run: as §1
# human kinome [11] = molecular target: human kinome (Homo sapiens, UniProt Q9BYP7); assay: DiscoverX KINOMEscan kinase profiling (468 assays); conditions: kinase WNK3 (Entrez WNK3); compound concentration 1000 nM; read-out: Percent Control
# How it was run: as §1
# human kinome [12] = molecular target: human kinome (Homo sapiens, UniProt P45985); assay: DiscoverX KINOMEscan kinase profiling (468 assays); conditions: MEK4 (Entrez MAP2K4); 100 nM; read-out: Percent Control
# How it was run: as §1
# human kinome [13] = molecular target: human kinome (Homo sapiens, UniProt P36888, D835H); assay: DiscoverX KINOMEscan kinase profiling (468 assays); conditions: FLT3(D835H); 100 nM; read-out: Percent Control
# How it was run: as §1
# human kinome [14] = molecular target: human kinome (Homo sapiens, UniProt Q5S007, G2019S); assay: DiscoverX KINOMEscan kinase profiling (468 assays); conditions: LRRK2(G2019S); 100 nM; read-out: Percent Control
# How it was run: as §1
# human kinome [15] = molecular target: human kinome (Homo sapiens, UniProt P24941); assay: DiscoverX KINOMEscan kinase profiling (468 assays); conditions: CDK2; 100 nM; read-out: Percent Control
# How it was run: as §1
# ASK1 = ASK1 (Homo sapiens, UniProt Q99683); assay: KINOMEscan: ASK1; conditions: 1000 nM, read-out: Percent Control
# human kinome (Homo sapiens, UniProt P42336, H1047Y), sequence (P42336 whole entry H1047Y): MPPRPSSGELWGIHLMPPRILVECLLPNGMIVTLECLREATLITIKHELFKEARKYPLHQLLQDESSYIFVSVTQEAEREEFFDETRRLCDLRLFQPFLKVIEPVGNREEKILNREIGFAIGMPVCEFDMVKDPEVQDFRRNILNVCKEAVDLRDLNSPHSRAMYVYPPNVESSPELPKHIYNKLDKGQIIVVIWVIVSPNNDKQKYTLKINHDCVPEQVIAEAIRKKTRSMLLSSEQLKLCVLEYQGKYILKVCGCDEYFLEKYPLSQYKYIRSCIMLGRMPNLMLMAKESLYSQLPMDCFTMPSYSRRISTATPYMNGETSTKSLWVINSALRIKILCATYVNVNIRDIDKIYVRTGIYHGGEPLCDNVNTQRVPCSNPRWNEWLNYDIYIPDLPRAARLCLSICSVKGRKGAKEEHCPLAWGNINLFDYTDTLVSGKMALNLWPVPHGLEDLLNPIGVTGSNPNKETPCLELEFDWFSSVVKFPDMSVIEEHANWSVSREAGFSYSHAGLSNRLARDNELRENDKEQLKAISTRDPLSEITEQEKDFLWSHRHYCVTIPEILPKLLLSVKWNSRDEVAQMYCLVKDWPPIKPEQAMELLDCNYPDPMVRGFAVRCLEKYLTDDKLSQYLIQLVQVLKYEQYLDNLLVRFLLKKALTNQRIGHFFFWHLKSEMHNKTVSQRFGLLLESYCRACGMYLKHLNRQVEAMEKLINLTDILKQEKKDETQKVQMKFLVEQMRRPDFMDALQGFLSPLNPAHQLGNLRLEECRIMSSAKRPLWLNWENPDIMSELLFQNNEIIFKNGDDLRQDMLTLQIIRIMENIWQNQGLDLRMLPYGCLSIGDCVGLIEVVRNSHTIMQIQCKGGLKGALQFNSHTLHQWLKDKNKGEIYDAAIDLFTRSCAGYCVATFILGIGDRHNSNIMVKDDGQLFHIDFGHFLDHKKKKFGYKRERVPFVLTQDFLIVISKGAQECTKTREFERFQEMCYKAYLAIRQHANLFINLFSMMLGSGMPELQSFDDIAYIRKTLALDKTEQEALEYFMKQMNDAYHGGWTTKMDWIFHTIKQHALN
# human kinome (Homo sapiens, UniProt Q99755), sequence (Q99755 whole entry): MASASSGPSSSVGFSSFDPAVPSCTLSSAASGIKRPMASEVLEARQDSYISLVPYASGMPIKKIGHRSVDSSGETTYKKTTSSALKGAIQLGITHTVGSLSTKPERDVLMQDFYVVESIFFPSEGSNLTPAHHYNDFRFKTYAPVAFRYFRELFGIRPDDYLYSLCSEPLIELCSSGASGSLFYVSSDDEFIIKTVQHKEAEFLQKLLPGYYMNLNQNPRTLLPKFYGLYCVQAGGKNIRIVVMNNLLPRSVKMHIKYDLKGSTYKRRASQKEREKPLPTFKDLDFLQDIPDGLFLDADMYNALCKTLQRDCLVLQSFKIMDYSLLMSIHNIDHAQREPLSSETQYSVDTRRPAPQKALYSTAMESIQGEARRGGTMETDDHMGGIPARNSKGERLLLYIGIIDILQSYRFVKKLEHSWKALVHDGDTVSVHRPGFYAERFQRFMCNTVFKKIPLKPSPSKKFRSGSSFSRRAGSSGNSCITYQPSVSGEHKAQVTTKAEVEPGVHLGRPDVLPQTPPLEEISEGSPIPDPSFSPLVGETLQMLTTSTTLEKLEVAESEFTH
# human kinome (Homo sapiens, UniProt Q13976), sequence (Q13976 whole entry): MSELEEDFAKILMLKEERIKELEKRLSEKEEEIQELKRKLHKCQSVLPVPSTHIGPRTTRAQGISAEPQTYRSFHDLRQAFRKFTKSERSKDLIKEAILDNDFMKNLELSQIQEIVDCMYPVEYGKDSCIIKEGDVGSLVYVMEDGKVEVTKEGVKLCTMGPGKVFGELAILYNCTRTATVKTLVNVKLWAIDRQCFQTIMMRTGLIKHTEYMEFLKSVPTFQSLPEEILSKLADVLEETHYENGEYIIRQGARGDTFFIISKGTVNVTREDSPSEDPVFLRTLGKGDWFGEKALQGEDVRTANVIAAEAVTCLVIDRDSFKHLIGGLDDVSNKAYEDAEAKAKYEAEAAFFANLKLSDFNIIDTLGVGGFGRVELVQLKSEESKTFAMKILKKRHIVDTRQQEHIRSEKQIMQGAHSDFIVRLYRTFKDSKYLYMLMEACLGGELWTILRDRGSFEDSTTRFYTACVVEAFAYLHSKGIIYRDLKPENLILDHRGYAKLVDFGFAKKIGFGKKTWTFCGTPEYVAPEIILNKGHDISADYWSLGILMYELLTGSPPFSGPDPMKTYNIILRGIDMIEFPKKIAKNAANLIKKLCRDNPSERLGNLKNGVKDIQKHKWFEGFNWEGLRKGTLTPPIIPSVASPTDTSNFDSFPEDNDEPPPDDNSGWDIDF
# human kinome (Homo sapiens, UniProt Q99640), sequence (Q99640 whole entry): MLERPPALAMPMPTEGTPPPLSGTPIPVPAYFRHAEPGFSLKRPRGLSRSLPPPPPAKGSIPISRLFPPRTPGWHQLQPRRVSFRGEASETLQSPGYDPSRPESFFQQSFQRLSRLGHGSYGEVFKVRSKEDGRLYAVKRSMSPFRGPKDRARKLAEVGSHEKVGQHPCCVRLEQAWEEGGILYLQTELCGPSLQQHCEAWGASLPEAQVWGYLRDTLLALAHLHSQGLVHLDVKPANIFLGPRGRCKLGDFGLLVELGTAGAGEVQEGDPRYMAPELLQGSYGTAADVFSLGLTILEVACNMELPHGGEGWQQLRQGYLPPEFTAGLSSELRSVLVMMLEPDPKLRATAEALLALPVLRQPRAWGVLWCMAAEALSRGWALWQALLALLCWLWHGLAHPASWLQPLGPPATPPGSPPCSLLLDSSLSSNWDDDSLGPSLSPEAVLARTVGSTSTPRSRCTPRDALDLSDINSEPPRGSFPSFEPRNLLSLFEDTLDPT
# CDKL3, sequence (Q8IVW4 whole entry): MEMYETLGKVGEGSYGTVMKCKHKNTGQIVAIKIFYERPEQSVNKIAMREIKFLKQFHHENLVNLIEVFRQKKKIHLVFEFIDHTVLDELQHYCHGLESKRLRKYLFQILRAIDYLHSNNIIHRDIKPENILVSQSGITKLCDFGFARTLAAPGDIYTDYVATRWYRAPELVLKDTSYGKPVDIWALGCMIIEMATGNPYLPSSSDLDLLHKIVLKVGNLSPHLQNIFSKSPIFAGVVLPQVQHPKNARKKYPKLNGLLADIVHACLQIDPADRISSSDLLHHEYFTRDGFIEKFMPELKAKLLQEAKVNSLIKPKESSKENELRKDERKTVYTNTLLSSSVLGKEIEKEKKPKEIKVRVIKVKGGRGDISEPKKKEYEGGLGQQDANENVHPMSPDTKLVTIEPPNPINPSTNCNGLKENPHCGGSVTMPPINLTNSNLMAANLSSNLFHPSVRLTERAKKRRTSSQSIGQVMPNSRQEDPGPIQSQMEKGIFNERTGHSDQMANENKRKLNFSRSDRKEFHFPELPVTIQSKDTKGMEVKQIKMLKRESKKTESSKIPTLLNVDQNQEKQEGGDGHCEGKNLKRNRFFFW
# human kinome (Homo sapiens, UniProt P68400), sequence (P68400 whole entry): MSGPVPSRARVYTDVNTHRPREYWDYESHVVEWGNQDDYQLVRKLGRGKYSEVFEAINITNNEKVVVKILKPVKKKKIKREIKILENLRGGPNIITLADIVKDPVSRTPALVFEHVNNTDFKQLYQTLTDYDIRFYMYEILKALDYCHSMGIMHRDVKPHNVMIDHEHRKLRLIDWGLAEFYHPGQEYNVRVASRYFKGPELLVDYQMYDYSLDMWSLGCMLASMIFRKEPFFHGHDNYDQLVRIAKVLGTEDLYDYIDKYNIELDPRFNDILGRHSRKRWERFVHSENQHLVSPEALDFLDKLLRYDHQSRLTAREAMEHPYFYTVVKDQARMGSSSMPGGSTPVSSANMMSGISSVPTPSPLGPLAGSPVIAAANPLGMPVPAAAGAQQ
# human kinome (Homo sapiens, UniProt P45985), sequence (P45985 whole entry): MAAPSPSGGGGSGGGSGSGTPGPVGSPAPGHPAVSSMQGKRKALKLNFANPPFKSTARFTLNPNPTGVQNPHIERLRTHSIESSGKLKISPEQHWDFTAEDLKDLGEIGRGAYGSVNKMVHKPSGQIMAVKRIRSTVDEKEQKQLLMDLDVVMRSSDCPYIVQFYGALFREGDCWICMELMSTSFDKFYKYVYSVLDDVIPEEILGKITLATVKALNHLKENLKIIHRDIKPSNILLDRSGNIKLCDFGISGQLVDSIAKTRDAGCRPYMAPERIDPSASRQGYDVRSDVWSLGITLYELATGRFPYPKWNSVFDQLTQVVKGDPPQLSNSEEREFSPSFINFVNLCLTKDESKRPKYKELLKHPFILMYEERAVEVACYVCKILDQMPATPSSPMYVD
# human kinome (Homo sapiens, UniProt Q13131), sequence (Q13131 whole entry): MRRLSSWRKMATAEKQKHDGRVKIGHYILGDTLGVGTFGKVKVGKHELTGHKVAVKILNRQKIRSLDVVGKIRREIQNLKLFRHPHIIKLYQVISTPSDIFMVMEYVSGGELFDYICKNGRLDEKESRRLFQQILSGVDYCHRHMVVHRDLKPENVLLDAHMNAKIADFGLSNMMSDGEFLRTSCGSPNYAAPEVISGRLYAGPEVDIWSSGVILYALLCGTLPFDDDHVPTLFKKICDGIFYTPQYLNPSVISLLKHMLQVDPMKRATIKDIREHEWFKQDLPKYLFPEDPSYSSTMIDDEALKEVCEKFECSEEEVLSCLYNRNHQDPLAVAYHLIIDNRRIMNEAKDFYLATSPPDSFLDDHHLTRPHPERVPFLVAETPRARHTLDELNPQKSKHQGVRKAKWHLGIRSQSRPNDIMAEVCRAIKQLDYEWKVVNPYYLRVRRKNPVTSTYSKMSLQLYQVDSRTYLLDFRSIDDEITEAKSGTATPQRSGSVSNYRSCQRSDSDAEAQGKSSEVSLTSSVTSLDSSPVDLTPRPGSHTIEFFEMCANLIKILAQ
structure (smiles),measurement,setting,value
COc1cc(F)ccc1-c1cc(Nc2cc(CS(C)(=N)=O)ccn2)ncc1F (stereo not drawn) [VIP152],remaining binding at 1 µM,CDKL3,53%
same,remaining binding at 0.1 µM,"human kinome [1]; PRKG1, 100 nM",100%
same,remaining binding at 1 µM,"human kinome [1]; kinase PRKG1 (Entrez PRKG1), compound concentration 1000 nM",91%
same,remaining binding at 1 µM,human kinome [2],82%
same,remaining binding at 0.1 µM,"human kinome [3]; PKMYT1, 100 nM",100%
same,remaining binding at 1 µM,"human kinome [3]; kinase PKMYT1 (Entrez PKMYT1), compound concentration 1000 nM",45%
same,remaining binding at 0.1 µM,human kinome [4],100%
same,remaining binding at 0.1 µM,"human kinome [5]; PIP5K1A, 100 nM",90%
same,remaining binding at 1 µM,"human kinome [5]; kinase PIP5K1A (Entrez PIP5K1A), compound concentration 1000 nM",18%
same,remaining binding at 0.1 µM,human kinome [6],100%
same,remaining binding at 1 µM,human kinome [7],57%
same,remaining binding at 0.1 µM,human kinome [8],89%
same,remaining binding at 0.1 µM,"human kinome [9]; PIK3CA(H1047Y), 100 nM",74%
same,remaining binding at 1 µM,"human kinome [9]; kinase PIK3CA(H1047Y) (Entrez PIK3CA), compound concentration 1000 nM",85%
same,remaining binding at 1 µM,human kinome [10],94%
same,remaining binding at 1 µM,human kinome [11],92%
same,remaining binding at 0.1 µM,human kinome [12],100%
same,remaining binding at 0.1 µM,human kinome [13],100%
same,remaining binding at 0.1 µM,human kinome [14],100%
same,remaining binding at 0.1 µM,human kinome [15],100%
same,remaining binding at 1 µM,ASK1,97%
